Assay results published in ChEMBL document CHEMBL3286254, “Structure-guided discovery of 1,3,5 tri-substituted benzenes as potent and selective matriptase inhibitors exhibiting in vivo antitumor efficacy” (Bioorg Med Chem, 2014).
≈ marks a conversion by molar mass, not a printed value.

What was measured:
DU-145 [1] = test: Cytotoxicity against human DU145 cells assessed as cell survival at 10 uM after 72 hrs by calcein AM assay; format: functional; details: DU-145, 72 h, read-out: Activity
DU-145 [2] = test: Cytotoxicity against human DU145 cells assessed as inhibition of number of colonies formed in soft agar measured on day 8; format: functional, cell-based; details: DU-145, 192 h
Prothrombin = Prothrombin (Homo sapiens, UniProt P00734); test: Inhibition of human thrombin using Boc-Gln-Ala-Arg-7-amido-4-methyl coumarin hydrobromide
Cytochrome P450 3A4 = Cytochrome P450 3A4 (Homo sapiens, UniProt P08684); test: Inhibition of CYP3A4 (unknown origin); format: ADME
Chain of Cytochrome P450 3A4 (P08684 whole entry): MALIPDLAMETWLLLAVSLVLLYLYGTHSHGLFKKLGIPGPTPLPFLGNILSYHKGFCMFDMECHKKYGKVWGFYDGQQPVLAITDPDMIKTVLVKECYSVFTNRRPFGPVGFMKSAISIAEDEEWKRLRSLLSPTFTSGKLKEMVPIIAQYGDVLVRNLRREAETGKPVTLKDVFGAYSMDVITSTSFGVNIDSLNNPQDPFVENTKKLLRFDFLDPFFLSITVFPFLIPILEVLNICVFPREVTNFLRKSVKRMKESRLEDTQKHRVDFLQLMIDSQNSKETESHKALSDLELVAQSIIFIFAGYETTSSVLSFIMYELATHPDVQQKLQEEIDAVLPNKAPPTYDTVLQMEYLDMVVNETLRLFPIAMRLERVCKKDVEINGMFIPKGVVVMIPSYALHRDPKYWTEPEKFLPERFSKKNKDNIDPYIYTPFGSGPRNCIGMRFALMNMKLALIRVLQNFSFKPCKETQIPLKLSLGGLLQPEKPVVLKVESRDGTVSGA

[3] = Cytotoxicity against human LNCaP-C42B4 cells assessed as inhibition of number of colonies formed in soft agar measured on day 8; format: functional, cell-based; details: LNCaP-C42B4, 192 h
PC-3 [4] = test: Cytotoxicity against human PC3 cells assessed as inhibition of number of colonies formed in soft agar measured on day 8; format: functional, cell-based; details: PC-3, 192 h
DU-145 [5] = test: Antiinvasion activity in human DU145 cells assessed as inhibition of FBS-induced cell invaded to lower surface at 10 uM for 3 days by matrigel assay; format: functional; details: DU-145, 72 h
[6] = Metabolic stability in rat liver microsomes assessed as compound remaining after 20 mins; format: ADME; details: read-out: Stability
[7] = Metabolic stability in mouse liver microsomes assessed as compound remaining after 20 mins; format: ADME; details: read-out: Stability
PC-3 [8] = test: Antiinvasion activity in human PC3 cells assessed as inhibition of FBS-induced cell invaded to lower surface at 10 uM for 3 days by matrigel assay; format: functional; details: PC-3, 72 h
PC-3 [9] = test: Cytotoxicity against human PC3 cells assessed as cell survival at 10 uM after 72 hrs by calcein AM assay; format: functional; details: PC-3, 72 h, read-out: Activity
Cytochrome P450 2C9 = Cytochrome P450 2C9 (Homo sapiens, UniProt P11712); test: Inhibition of CYP2C9 (unknown origin); format: ADME
Chain of Cytochrome P450 2C9 (P11712 whole entry): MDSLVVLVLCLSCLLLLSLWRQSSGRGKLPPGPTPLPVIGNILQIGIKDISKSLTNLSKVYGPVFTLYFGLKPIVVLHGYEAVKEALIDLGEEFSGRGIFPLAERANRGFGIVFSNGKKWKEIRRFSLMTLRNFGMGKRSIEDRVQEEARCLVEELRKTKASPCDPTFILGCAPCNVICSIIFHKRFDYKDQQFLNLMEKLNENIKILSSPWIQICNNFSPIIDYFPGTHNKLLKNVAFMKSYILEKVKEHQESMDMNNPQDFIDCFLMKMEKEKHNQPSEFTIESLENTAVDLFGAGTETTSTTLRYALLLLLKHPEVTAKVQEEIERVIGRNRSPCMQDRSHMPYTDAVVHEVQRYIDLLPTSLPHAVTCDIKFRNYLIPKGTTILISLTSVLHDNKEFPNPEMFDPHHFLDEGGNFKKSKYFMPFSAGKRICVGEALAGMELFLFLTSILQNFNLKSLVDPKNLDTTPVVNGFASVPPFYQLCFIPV

[10] = Aqueous solubility of the compound; format: physicochemical; details: buffer
Coagulation factor X = Coagulation factor X (Bos taurus, UniProt P00743); test: Inhibition of bovine plasma factor 10a using CH3OCO-D-CHA-Gly-Arg-pNA.AcoH substrate
Chain of Coagulation factor X (P00743 41-180 limits assumed): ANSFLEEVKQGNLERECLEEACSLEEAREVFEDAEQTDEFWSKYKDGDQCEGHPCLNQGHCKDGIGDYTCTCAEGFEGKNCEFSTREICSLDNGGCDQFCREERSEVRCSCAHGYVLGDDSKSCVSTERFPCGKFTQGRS
Chain of Coagulation factor X (P00743 234-492 limits assumed): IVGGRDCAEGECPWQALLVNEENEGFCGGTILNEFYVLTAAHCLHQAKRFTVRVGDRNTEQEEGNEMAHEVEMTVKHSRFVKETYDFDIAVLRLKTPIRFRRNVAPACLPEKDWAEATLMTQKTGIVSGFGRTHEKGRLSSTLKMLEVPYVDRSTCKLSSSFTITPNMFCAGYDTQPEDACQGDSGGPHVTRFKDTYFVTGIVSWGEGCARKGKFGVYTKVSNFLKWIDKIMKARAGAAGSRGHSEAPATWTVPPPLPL

[11] = molecular target: T1, Suppressor of tumorigenicity 14 protein (Homo sapiens, UniProt Q9Y5Y6); test: Inhibition of recombinant matriptase (unknown origin) using Boc-Gln-Ala-Arg-7-amido-4-methyl coumarin hydrobromide
T1 sequence (Q9Y5Y6 whole entry): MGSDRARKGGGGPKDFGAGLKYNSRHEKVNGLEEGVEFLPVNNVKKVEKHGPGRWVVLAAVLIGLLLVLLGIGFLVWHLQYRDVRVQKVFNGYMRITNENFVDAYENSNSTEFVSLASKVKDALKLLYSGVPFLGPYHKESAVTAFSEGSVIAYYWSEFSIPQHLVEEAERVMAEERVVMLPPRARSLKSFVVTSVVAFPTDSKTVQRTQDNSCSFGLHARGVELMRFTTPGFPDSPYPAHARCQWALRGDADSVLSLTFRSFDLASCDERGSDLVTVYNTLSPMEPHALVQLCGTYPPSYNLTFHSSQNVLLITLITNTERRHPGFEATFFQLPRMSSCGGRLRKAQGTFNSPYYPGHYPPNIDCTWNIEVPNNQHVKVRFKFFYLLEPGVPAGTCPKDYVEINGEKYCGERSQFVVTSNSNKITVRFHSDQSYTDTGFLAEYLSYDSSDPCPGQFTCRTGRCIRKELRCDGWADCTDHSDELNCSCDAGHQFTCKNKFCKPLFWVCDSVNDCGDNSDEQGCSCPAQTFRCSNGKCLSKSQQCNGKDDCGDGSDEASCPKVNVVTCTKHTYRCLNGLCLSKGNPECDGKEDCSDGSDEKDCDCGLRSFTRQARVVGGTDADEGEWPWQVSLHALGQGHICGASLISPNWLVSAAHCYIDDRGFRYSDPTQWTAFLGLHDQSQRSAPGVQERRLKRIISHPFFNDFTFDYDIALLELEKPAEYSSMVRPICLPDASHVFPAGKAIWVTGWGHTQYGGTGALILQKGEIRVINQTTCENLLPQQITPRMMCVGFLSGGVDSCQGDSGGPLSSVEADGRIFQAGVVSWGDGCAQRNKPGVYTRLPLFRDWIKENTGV

[12] = Cytotoxicity against human LNCaP-C42B4 cells assessed as cell survival at 10 uM after 72 hrs by calcein AM assay; format: functional; details: LNCaP-C42B4, 72 h, read-out: Activity
Trypsin = Trypsin (Homo sapiens, UniProt P07477+P07478+P35030); test: Inhibition of human pancreas Trypsin using Boc-Gln-Ala-Arg-7-amido-4-methyl coumarin hydrobromide; format: protein assay
[13] = Metabolic stability in human liver microsomes assessed as compound remaining after 20 mins; format: ADME; details: read-out: Stability
Cytochrome P450 2C19 = Cytochrome P450 2C19 (Homo sapiens, UniProt P33261); test: Inhibition of CYP2C19 (unknown origin); format: ADME
Chain of Cytochrome P450 2C19 (P33261 whole entry): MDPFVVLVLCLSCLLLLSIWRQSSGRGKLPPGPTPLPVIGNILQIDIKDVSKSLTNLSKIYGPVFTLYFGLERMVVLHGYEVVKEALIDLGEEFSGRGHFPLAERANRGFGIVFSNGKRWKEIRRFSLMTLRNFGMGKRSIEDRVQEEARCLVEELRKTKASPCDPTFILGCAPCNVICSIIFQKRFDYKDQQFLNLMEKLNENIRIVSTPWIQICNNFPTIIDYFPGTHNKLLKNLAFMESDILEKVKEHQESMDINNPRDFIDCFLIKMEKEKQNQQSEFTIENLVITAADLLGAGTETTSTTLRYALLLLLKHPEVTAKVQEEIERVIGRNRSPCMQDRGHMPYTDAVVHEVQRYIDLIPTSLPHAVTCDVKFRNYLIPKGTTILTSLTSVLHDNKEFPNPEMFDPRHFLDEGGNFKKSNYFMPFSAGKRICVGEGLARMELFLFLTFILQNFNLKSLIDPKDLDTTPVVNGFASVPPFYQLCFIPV

[14] = Antiinvasion activity in human LNCaP-C42B4 cells assessed as inhibition of FBS-induced cell invaded to lower surface at 10 uM for 3 days by matrigel assay; format: functional; details: LNCaP-C42B4, 72 h
Cytochrome P450 2D6 = Cytochrome P450 2D6 (Homo sapiens, UniProt P10635); test: Inhibition of CYP2D6 (unknown origin); format: ADME
Chain of Cytochrome P450 2D6 (P10635 whole entry): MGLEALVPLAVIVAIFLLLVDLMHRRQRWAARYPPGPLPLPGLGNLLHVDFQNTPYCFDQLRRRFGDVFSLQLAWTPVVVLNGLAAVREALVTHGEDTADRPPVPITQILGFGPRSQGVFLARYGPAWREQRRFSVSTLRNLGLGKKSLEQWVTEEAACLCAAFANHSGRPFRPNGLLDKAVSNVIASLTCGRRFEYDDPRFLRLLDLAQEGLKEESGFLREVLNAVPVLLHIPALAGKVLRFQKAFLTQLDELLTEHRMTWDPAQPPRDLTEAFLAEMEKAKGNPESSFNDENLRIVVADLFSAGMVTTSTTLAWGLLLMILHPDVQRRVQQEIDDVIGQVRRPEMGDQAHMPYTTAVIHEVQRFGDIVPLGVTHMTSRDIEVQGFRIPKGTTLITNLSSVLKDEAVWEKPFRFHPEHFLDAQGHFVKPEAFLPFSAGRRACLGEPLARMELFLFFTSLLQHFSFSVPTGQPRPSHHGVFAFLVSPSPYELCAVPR

Plasminogen = Plasminogen (Homo sapiens, UniProt P00747); test: Inhibition of human plasmin using pyroGlu-Phe-Lys-pNA.HCl
Chain of Plasminogen (P00747 97-580 limits assumed): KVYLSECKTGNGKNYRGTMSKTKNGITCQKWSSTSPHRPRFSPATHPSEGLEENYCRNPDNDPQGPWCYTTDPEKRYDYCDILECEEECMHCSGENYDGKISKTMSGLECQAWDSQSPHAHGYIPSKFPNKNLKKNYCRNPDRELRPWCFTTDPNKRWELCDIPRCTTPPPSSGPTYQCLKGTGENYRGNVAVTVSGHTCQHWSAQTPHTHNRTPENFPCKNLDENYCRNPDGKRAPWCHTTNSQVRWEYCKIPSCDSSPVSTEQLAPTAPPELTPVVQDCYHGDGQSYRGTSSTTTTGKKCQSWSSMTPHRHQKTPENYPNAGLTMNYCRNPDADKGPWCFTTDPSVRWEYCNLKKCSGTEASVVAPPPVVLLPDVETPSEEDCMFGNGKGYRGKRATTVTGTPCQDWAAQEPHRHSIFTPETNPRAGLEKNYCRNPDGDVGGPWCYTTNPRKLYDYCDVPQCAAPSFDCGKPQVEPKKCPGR
Chain of Plasminogen (P00747 581-810 limits assumed): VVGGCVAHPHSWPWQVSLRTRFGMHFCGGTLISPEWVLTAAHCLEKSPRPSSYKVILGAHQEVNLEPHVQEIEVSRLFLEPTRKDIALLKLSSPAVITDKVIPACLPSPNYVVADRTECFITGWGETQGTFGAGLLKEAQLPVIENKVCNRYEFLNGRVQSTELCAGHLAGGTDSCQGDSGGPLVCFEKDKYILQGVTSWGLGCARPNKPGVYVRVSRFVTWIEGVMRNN

Mus musculus [15] = test: Toxicity in SCID mouse xenografted with human DU145 cells assessed as body weight change at 0.5 mg/kg, sc administered twice daily for 31 days; format: organism-based, DU-145; parameters: dose 0.5 mg/kg, route subcutaneous; details: in vivo, 744 h
[16] = Tmax in NMRI mouse at 1 mg/kg, sc; details: in vivo
Mus musculus [17] = test: Toxicity in SCID mouse xenografted with human DU145 cells assessed as clinical signs at 0.5 mg/kg, sc administered twice daily for 31 days; format: organism-based, DU-145; parameters: dose 0.5 mg/kg, route subcutaneous; details: in vivo, 744 h
[18] = AUC (0 to infinity) in NMRI mouse at 1 mg/kg, sc; details: plasma
[19] = Cmax in NMRI mouse at 1 mg/kg, sc; details: in vivo
DU-145 [20] = test: Antitumor activity against human DU145 cells xenografted in SCID mouse assessed as tumor growth inhibition at 0.5 mg/kg, sc administered twice daily for 31 days; format: functional; details: DU-145, sc, 744 h, route subcutaneous, read-out: TGI
[21] = Terminal half life in NMRI mouse at 1 mg/kg, sc; details: in vivo, read-out: beta t1/2 (converted)
Mus musculus [22] = test: Toxicity in SCID mouse xenografted with human DU145 cells assessed as clinical signs at 1 mg/kg, sc administered twice daily for 31 days; details: in vivo, 744 h
Mus musculus [23] = test: Toxicity in SCID mouse xenografted with human DU145 cells assessed as body weight change at 1 mg/kg, sc administered twice daily for 31 days; details: in vivo, 744 h

SMILES | viability at 10 µM (DU-145 [1]) | EC50 (DU-145 [2]) | Ki (Prothrombin) | IC50 (Cytochrome P450 3A4) | EC50 [3] | EC50 (PC-3 [4]) | inhibition at 10 µM (DU-145 [5]) | remaining at 20 min [6] | remaining at 20 min [7] | inhibition at 10 µM (PC-3 [8]) | viability at 10 µM (PC-3 [9]) | IC50 (Cytochrome P450 2C9) | solubility [10] | Ki (Coagulation factor X) | Ki [11] | viability at 10 µM [12] | Ki (Trypsin) | remaining at 20 min [13] | IC50 (Cytochrome P450 2C19) | inhibition at 10 µM [14] | also measured
N=C(N)c1ccc(Oc2cc(Oc3ccc(C(=N)N)cc3)cc(C(=O)O[C@H]3CC[C@H](N)CC3)c2)cc1 | 92% | 152 nM | 2470 nM | > 30000 nM | 135 nM | 81 nM | 89% | 34% | 24% | 95% | 82% | > 30000 nM | 182 µM (≈ 88.7 µg/mL) | 44 nM | 1 nM | 95% | 264 nM | 54% | > 30000 nM | 90% | IC50 (Cytochrome P450 2D6): > 30000 nM
N=C(N)c1ccc(Oc2cc(Oc3ccc(C(=N)N)cc3)cc(C(=O)N3CCC(CCN)CC3)c2)cc1 | 100% |  | 4060 nM |  |  |  | 62% |  |  | 54% | 93% |  |  | 1290 nM | 94 nM | 100% | 545 nM |  |  | 61% | 
N=C(N)c1ccc(Oc2cc(Oc3ccc(C(=N)N)cc3)cc(C(=O)N3CCC4CCCCC4C3)c2)cc1 (stereo not drawn) | 78% |  | 501 nM |  |  |  | 45% |  |  | 47% | 87% |  |  | 336 nM | 305 nM | 79% | 232 nM |  |  | 15% | Ki (Plasminogen): 1530 nM
N=C(N)c1ccc(Oc2cc(NC(=O)C3CCN(C(=O)CCN)CC3)cc(Oc3ccc(C(=N)N)cc3)c2)cc1 | 98% | 130 nM | 2680 nM |  | 1580 nM | 580 nM | 94% |  |  | 37% | 80% |  |  | 95 nM | 61 nM | 99% | 541 nM |  |  | 60% | Ki (Plasminogen): 2590 nM
N=C(N)c1ccc(Oc2cc(NC(=O)[C@H]3CC[C@H](N)CC3)cc(Oc3ccc(C(=N)N)cc3)c2)cc1 | 100% | 41 nM | 2220 nM | > 30000 nM | 1540 nM | 105 nM | 98% | 91% | 83% | 86% | 94% | > 30000 nM | 200 µM (≈ 97.3 µg/mL) | 503 nM | 3 nM | 90% | 894 nM | 97% | > 30000 nM | 63% | Activity (Mus musculus [15]): < 5%; Tmax [16]: 0.75 h; Activity (Mus musculus [17]): Non-toxic; AUC(0-inf) [18]: 1850 ng·h/mL; Cmax [19]: 484 ng/mL; inhibition in vivo at 0.5 mg/kg (DU-145 [20]): 52%; half-life [21]: 3.3 h; IC50 (Cytochrome P450 2D6): > 30000 nM
N=C(N)c1ccc(Oc2cc(Oc3ccc(C(=N)N)cc3)cc(C(=O)N[C@H]3CC[C@H](N)CC3)c2)cc1 | 100% | 200 nM | 2100 nM | > 30000 nM | 1360 nM | 48 nM | 81% | 100% | 81% | 97% | 96% | > 30000 nM | 194 µM (≈ 94.4 µg/mL) | 516 nM | 10 nM | 95% | 1625 nM | 85% | > 30000 nM | 84% | Activity (Mus musculus [22]): Non-toxic; Tmax [16]: 0.27 h; Activity (Mus musculus [23]): < 5%; AUC(0-inf) [18]: 1000 ng·h/mL; Cmax [19]: 487 ng/mL; half-life [21]: 1.6 h; IC50 (Cytochrome P450 2D6): > 30000 nM
N=C(N)c1ccc(Oc2cc(Oc3ccc(CN)cc3)cc(C(=O)N[C@H]3CC[C@H](N)CC3)c2)cc1 | 90% | 324 nM | 3130 nM |  | 1700 nM | 485 nM | 49% |  |  | 54% | 63% |  |  |  | 40 nM | 100% | 1541 nM |  |  | 59% | 
